Data: PubChem BioAssay (NCI)
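Abbreviation: GI50, concentration required for 50% inhibition of growth. TGI denotes the concentration required for complete inhibition of growth.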

Assays:
Assay in all cases: NCI anticancer screen, dose series, 384-well format
[1] = system: HCC-2998 colon
[2] = system: COLO 205 colon
[3] = system: SNB-19 CNS
[4] = system: A498 renal
[5] = system: MALME-3M melanoma
[6] = system: ACHN renal
[7] = system: 786-0 renal
[8] = system: SF-268 CNS
[9] = system: TK-10 renal
[10] = system: CCRF-CEM leukemia
[11] = system: LOX IMVI melanoma
[12] = system: HCT-116 colon
[13] = system: HS 578T breast
[14] = system: OVCAR-8 ovarian
[15] = system: NCI-H322M lung
[16] = system: A549 NSCLC
[17] = system: SK-MEL-28 melanoma
[18] = system: HL-60(TB) leukemia
[19] = system: HT29 colon
[20] = system: MOLT-4 leukemia
[21] = system: IGROV1 ovarian
[22] = system: DU-145 prostate
[23] = system: U251 glioblastoma
[24] = system: RPMI-8226 leukemia
[25] = system: MCF7 breast
[26] = system: OVCAR-4 ovarian
[27] = system: SW-620 colon
[28] = system: MDA-MB-435 melanoma
[29] = system: SF-295 CNS
[30] = system: SNB-75 CNS
[31] = system: SF-539 CNS
[32] = system: HCT-15 colon
[33] = system: MDA-MB-468 breast
[34] = system: CAKI-1 renal
[35] = system: HOP-92 NSCLC
[36] = system: SK-MEL-2 melanoma
[37] = system: OVCAR-3 ovarian
[38] = system: RXF 393 renal
[39] = system: K-562 leukemia
[40] = system: NCI-H226 lung
[41] = system: NCI/ADR-RES ovarian
[42] = system: SN12C renal
[43] = system: KM12 colon
[44] = system: BT-549 breast
[45] = system: HOP-62 NSCLC
[46] = system: UACC-257 melanoma
[47] = system: SK-MEL-5 melanoma
[48] = system: SK-OV-3 ovarian
[49] = system: UACC-62 melanoma
[50] = system: EKVX NSCLC
[51] = system: NCI-H522 lung
[52] = system: NCI-H460 NSCLC
[53] = system: NCI-H23 lung
[54] = system: M14 melanoma
[55] = system: PC-3 prostate
[56] = system: UO-31 renal
[57] = system: SR leukemia
[58] = system: T-47D breast
[59] = system: OVCAR-5 ovarian
[60] = system: MDA-MB-231 breast

CN(C)C(=O)c1ccc(SC(=S)NCc2ccccc2)cc1 was tested, and the GI50 [1] was 4.77 µM, the TGI [1] was 13.6 µM and the GI50 [2] was 4.72 µM. For the same compound, the TGI [2] was 15.1 µM, the GI50 [3] was 3.37 µM and the TGI [3] was 9.21 µM. The GI50 [4] was 3.78 µM, the TGI [4] was 10.3 µM and the GI50 [5] was 3.15 µM. It also gave a TGI [5] of 5.52 µM, a GI50 [6] of 3.24 µM and a TGI [6] of 8.66 µM. It also gave a GI50 [7] of 1.99 µM, a TGI [7] of 3.6 µM and a GI50 [8] of 3.83 µM. It also gave a TGI [8] of 10.8 µM, a GI50 [9] of 2.87 µM and a TGI [9] of 6.13 µM. The GI50 [10] was 1.63 µM, the TGI [10] was 3.05 µM and the GI50 [11] was 2.07 µM. For the same compound, the TGI [11] was 4.09 µM, the GI50 [12] was 3.51 µM and the TGI [12] was 8.81 µM. It also gave a GI50 [13] of 2.77 µM, a TGI [13] of 5.81 µM and a GI50 [14] of 2.15 µM. For the same compound, the TGI [14] was 4.31 µM, the GI50 [15] was 5.05 µM and the TGI [15] was 15.7 µM. For the same compound, the GI50 [16] was 7.98 µM, the TGI [16] was 21 µM and the GI50 [17] was 2.52 µM. For the same compound, the TGI [17] was 4.91 µM, the GI50 [18] was 0.364 µM and the TGI [18] was 1.15 µM. For the same compound, the GI50 [19] was 1.8 µM, the TGI [19] was 3.25 µM and the GI50 [20] was 1.64 µM. It also gave a TGI [20] of 3.09 µM, a GI50 [21] of 2.48 µM and a TGI [21] of 6.77 µM. The GI50 [22] was 5.09 µM, the TGI [22] was 15 µM and the GI50 [23] was 3.55 µM. It also gave a TGI [23] of 9.29 µM, a GI50 [24] of 0.458 µM and a TGI [24] of 1.22 µM. It also gave a GI50 [25] of 2.36 µM, a TGI [25] of 10.6 µM and a GI50 [26] of 15.7 µM. It also gave a TGI [26] of 29.2 µM, a GI50 [27] of 2.87 µM and a TGI [27] of 10.1 µM. The GI50 [28] was 2.23 µM, the TGI [28] was 5.21 µM and the GI50 [29] was 12.1 µM. The TGI [29] was 24.6 µM, the GI50 [30] was 4.09 µM and the TGI [30] was 7.63 µM. It also gave a GI50 [31] of 1.77 µM, a TGI [31] of 3.29 µM and a GI50 [32] of 1.9 µM. The TGI [32] was 3.53 µM, the GI50 [33] was 0.701 µM and the TGI [33] was 1.33 µM. For the same compound, the GI50 [34] was 2.92 µM, the TGI [34] was 9.76 µM and the GI50 [35] was 2.72 µM. The TGI [35] was 7.17 µM, the GI50 [36] was 1.54 µM and the TGI [36] was 2.98 µM. It also gave a GI50 [37] of 3.8 µM, a TGI [37] of 11.4 µM and a GI50 [38] of 1.83 µM. It also gave a TGI [38] of 3.34 µM, a GI50 [39] of 10.6 µM and a TGI [39] of 22.5 µM. It also gave a GI50 [40] of 2.63 µM, a TGI [40] of 6.33 µM and a GI50 [41] of 2.96 µM. The TGI [41] was 6.23 µM, the GI50 [42] was 2.45 µM and the TGI [42] was 6.12 µM. It also gave a GI50 [43] of 1.67 µM, a TGI [43] of 8.91 µM and a GI50 [44] of 2.39 µM. For the same compound, the TGI [44] was 4.6 µM, the GI50 [45] was 1.9 µM and the TGI [45] was 3.87 µM. The GI50 [46] was 2.9 µM, the TGI [46] was 5.66 µM and the GI50 [47] was 1.91 µM. For the same compound, the TGI [47] was 3.38 µM, the GI50 [48] was 6.26 µM and the TGI [48] was 18.1 µM. The GI50 [49] was 2.09 µM, the TGI [49] was 3.61 µM and the GI50 [50] was 13.4 µM. It also gave a TGI [50] of 26.3 µM, a GI50 [51] of 3.18 µM and a TGI [51] of 7.34 µM. For the same compound, the GI50 [52] was 2.73 µM, the TGI [52] was 6.45 µM and the GI50 [53] was 3.17 µM. The TGI [53] was 8.36 µM, the GI50 [54] was 2.36 µM and the TGI [54] was 5.32 µM. The GI50 [55] was 3.64 µM and the TGI [55] was 9.17 µM.
For Cc1cc(C(=O)NC(C)(C)C)cc(C#Cc2ccc3c4c(oc3c2)C(C)(C)c2cc(NS(C)(=O)=O)ccc2C4=O)n1, the GI50 [1] was 1.73 µM, the TGI [1] was 8.55 µM and the GI50 [2] was 1.28 µM. For the same compound, the TGI [2] was 3.42 µM, the GI50 [3] was 2.92 µM and the TGI [3] was > 100 µM. The GI50 [4] was 0.833 µM, the TGI [4] was 4.66 µM and the GI50 [5] was 0.695 µM. For the same compound, the TGI [5] was 3.01 µM, the GI50 [6] was 0.815 µM and the TGI [6] was 8.3 µM. The GI50 [7] was 0.642 µM, the TGI [7] was 2.2 µM and the GI50 [8] was 2.17 µM. For the same compound, the TGI [8] was > 100 µM, the GI50 [56] was 0.365 µM and the TGI [56] was 1.71 µM. The GI50 [9] was 1.8 µM, the TGI [9] was 29.2 µM and the GI50 [10] was 1.26 µM. It also gave a TGI [10] of 2.83 µM, a GI50 [11] of 3.2 µM and a TGI [11] of 7.42 µM. For the same compound, the GI50 [12] was 1.02 µM, the TGI [12] was > 100 µM and the GI50 [14] was 1.81 µM. For the same compound, the TGI [14] was 6.23 µM, the GI50 [15] was 2.67 µM and the TGI [15] was > 100 µM. For the same compound, the GI50 [16] was 2.27 µM, the TGI [16] was > 100 µM and the GI50 [17] was 0.971 µM. It also gave a TGI [17] of 5.51 µM, a GI50 [18] of 0.591 µM and a TGI [18] of 1.78 µM. For the same compound, the GI50 [19] was 0.774 µM, the TGI [19] was 3.06 µM and the GI50 [20] was 0.565 µM. The TGI [20] was 1.7 µM, the GI50 [21] was 2.15 µM and the TGI [21] was > 100 µM. The GI50 [22] was 1.48 µM, the TGI [22] was 8.91 µM and the GI50 [23] was 1.89 µM. For the same compound, the TGI [23] was > 100 µM, the GI50 [24] was 0.168 µM and the TGI [24] was 0.41 µM. For the same compound, the GI50 [25] was 0.985 µM, the TGI [25] was 4.35 µM and the GI50 [26] was 1.34 µM. It also gave a TGI [26] of 6.33 µM, a GI50 [27] of 1.26 µM and a TGI [27] of 3.54 µM. It also gave a GI50 [57] of 0.198 µM, a TGI [57] of 0.42 µM and a GI50 [28] of 0.41 µM. The TGI [28] was 2.03 µM, the GI50 [29] was 1.33 µM and the TGI [29] was 3.88 µM. For the same compound, the GI50 [31] was 1.16 µM, the TGI [31] was 5.93 µM and the GI50 [32] was 0.862 µM. For the same compound, the TGI [32] was > 100 µM, the GI50 [33] was 0.985 µM and the TGI [33] was 2.85 µM. For the same compound, the GI50 [58] was 0.631 µM, the TGI [58] was 2.27 µM and the GI50 [34] was 0.549 µM. It also gave a TGI [34] of 4.11 µM, a GI50 [59] of 2.08 µM and a TGI [59] of 9.85 µM. It also gave a GI50 [35] of 0.198 µM, a TGI [35] of 0.98 µM and a GI50 [36] of 0.496 µM. The TGI [36] was 3.1 µM, the GI50 [37] was 1.46 µM and the TGI [37] was 4.42 µM. The GI50 [38] was 0.188 µM, the TGI [38] was 0.41 µM and the GI50 [39] was 1.31 µM. The TGI [39] was > 100 µM, the GI50 [40] was 1.31 µM and the TGI [40] was 5.41 µM. The GI50 [41] was 1.59 µM, the TGI [41] was 4.17 µM and the GI50 [42] was 0.934 µM. For the same compound, the TGI [42] was > 100 µM, the TGI [43] was 1.02 µM and the GI50 [60] was 3.45 µM. The TGI [60] was > 100 µM, the GI50 [44] was 1.15 µM and the TGI [44] was 4.82 µM. The GI50 [45] was 2.13 µM, the TGI [45] was 6.76 µM and the GI50 [46] was 0.977 µM. It also gave a TGI [46] of 3.07 µM, a GI50 [47] of 0.913 µM and a TGI [47] of 2.16 µM. It also gave a GI50 [48] of 1.93 µM, a TGI [48] of 7.04 µM and a GI50 [49] of 0.673 µM. The TGI [49] was 3.96 µM, the GI50 [51] was 0.813 µM and the TGI [51] was 4.13 µM. For the same compound, the GI50 [52] was 1.18 µM, the TGI [52] was 3.02 µM and the GI50 [53] was 0.602 µM. It also gave a TGI [53] of 2.63 µM, a GI50 [54] of 1.08 µM and a TGI [54] of 3.34 µM. It also gave a GI50 [55] of 2.47 µM and a TGI [55] of 9.21 µM.
